We go through two compounds from patent publication US20080262010A1, “CRYSTALLINE POLYMORPHS OF N-(3-(DIMETHYLAMINO)PROPYL)-4-(4-(3-FLUORO-4-METHOXYPHENYL) PYRIMIDIN-2-YLAMINO) BENZENESULFONAMIDE AS D-GLUCORONATE SALTS” (Wyeth, priority 2007, published 2008).

Where a name gives a salt, the structure may show the parent alone.

Series [1] can be described thus: Water solubility of compound 3 free base and its salts. The series is classed as physicochemical. Particulars: for solubility in water: free base, thermogravimetric method. From the text:
HCl, phosphoric acid, tartaric acid, acetic acid, D-glucoronic acid and succinic acid were used to prepare pharmaceutically acceptable salts of compound 3.
Solid or crystalline forms or polymorphs of compounds having formula I can be achieved in the free base.

The nature of series [2]: Solubility of the free base of compound 3 in solvents. The series is classed as physicochemical. As to the method:
Typically, water solubilities of the compounds in the form of their respective free base, such as compound 3, are low to none. In an exemplary embodiment, the solubility of the free base form of compound 3 in THF, DMSO and DMF was high but the solubility in group 3 solvents, or water for example, was low. For example, acetone is needed to dissolve the free base at 50° C. […] HCl, phosphoric acid, tartaric acid, acetic acid, D-glucoronic acid and succinic acid were used to prepare pharmaceutically acceptable salts of compound 3.

For the compound `COc1ccc(-c2ccnc(Nc3ccc(S(=O)(=O)NCCCN(C)C)cc3)n2)cc1F` [D-glucoronate salt of compound 3], in series [1] (salts of compound 3), the solubility stood at 5170 µg/mL and the water solubility was 5700 µg/mL.

For `COc1ccc(-c2ccnc(Nc3ccc(S(=O)(=O)NCCCN(C)C)cc3)n2)cc1F` [compound 3, N-(3-(dimethylamino)propyl)-4-(4-(3-fluoro-4-methoxyphenyl)pyrimidin-2-ylamino)benzenesulfonamide], the “solubility in THF, DMSO and DMF” value in series [2] (THF, DMSO and DMF) was “high”. Moreover, the “solubility in group 3 solvents, or water” value in series [2] (group 3 solvents, or water) is on record as “low”. Besides, the solubility in water entry in series [1] was “little to no water solubility”; in series [1] (listed as free base 3), “not detectable”.
